Calls of active or inactive are those of the source. The calls are words filed in the database; no cut-off is given here.
How the values were obtained:
dengue virus type 2 = test: Antiviral activity against DENV2 clinical strain infected in African green monkey Vero E6 cells assessed as decrease in viral RNA levels up to 20 uM by qRT-PCR method; assay type: functional, organism-based; settings: Vero C1008
dengue virus type 3 = test: Antiviral activity against DENV3 clinical strain infected in African green monkey Vero E6 cells assessed as decrease in viral RNA levels up to 20 uM by qRT-PCR method; assay type: functional, organism-based; settings: Vero C1008
West Nile virus = test: Antiviral activity against WNV clinical strain infected in African green monkey Vero E6 cells assessed as decrease in viral RNA levels up to 20 uM by qRT-PCR method; assay type: functional, organism-based; settings: Vero C1008
[1] = biological target: Nonstructural protein 5 (Dengue virus) (UniProt V5TFZ2); test: Inhibition of DENV3 NS5 RdRp using ss-RNA PolyC as template and GTP as substrate assessed as decrease in dsRNA levels after 1 hr in presence of tritonX100 by PicoGreen-based fluorescence assay; settings: dengue virus type 3
[2] = biological target: Nonstructural protein 5 (Dengue virus) (UniProt V5TFZ2); test: Binding affinity to DENV3 NT-647-NHS labeled NS5 RdRp after 1 hr in presence of ss-RNA PolyC as template and GTP as substrate by microscale thermophoresis method; settings: dengue virus type 3
Zika virus = test: Antiviral activity against Zika virus clinical strain infected in African green monkey Vero E6 cells assessed as decrease in viral RNA levels up to 20 uM by qRT-PCR method; assay type: functional, organism-based; settings: Vero C1008
[3] = system: O=C(OC1=CS(=O)(=O)Nc2ccc(Oc3ccccc3Br)cc21)c1ccc(F)c(F)c1; test: Mixed type inhibition of DENV3 NS5 RdRp using increasing concentration of GTP as substrate assessed as enzyme Vmax after 1 hr in presence of ss-RNA PolyC template by Lineweaver-Burk double reciprocal plot analysis; settings: dengue virus type 3
[4] = system: O=C(OC1=CS(=O)(=O)Nc2ccc(Oc3ccccc3Br)cc21)c1ccc(F)c(F)c1; test: Mixed type inhibition of DENV3 NS5 RdRp using increasing concentration of ss-RNA PolyC as template assessed as enzyme Vmax after 1 hr in presence of GTP substrate by Lineweaver-Burk double reciprocal plot analysis; settings: dengue virus type 3
[5] = system: O=C(OC1=CS(=O)(=O)Nc2ccc(Oc3ccccc3Br)cc21)c1ccc(F)c(F)c1; test: Mixed type inhibition of DENV3 NS5 RdRp using increasing concentration of ss-RNA PolyC as template assessed as Km for substrate after 1 hr in presence of GTP substrate after 1 hr by Lineweaver-Burk double reciprocal plot analysis; settings: dengue virus type 3
[6] = system: O=C(OC1=CS(=O)(=O)Nc2ccc(Oc3ccccc3Br)cc21)c1ccc(F)c(F)c1; test: Mixed type inhibition of DENV3 NS5 RdRp using increasing concentration of GTP as substrate assessed as Km for substrate after 1 hr in presence of ss-RNA PolyC template by Lineweaver-Burk double reciprocal plot analysis; settings: dengue virus type 3

| Molecule | Activity (dengue virus type 2) | Activity (dengue virus type 3) | Activity (West Nile virus) | inhibition [1] | Activity [2] | Activity (Zika virus) | Vmax [3] [nM/min] | Vmax [4] [nM/min] | Km [5] [µM] | Km [6] [µM] |
| --- | --- | --- | --- | --- | --- | --- | --- | --- | --- | --- |
| O=C(OC1=CS(=O)(=O)Nc2ccc(Oc3ccccc3Br)cc21)c1ccc(F)c(F)c1 | inactive | inactive | inactive | Active | Active | inactive | – | – | – | – |
| Nonstructural protein 5 (Dengue virus), V5TFZ2 | – | – | – | – | – | – | 15.8 | 23.2 | 0.907 | 5.29 |

— ChEMBL document CHEMBL4251565, “Functionalized 2,1-benzothiazine 2,2-dioxides as new inhibitors of Dengue NS5 RNA-dependent RNA polymerase” (Eur J Med Chem, 2018)
